Results taken from ChEMBL document CHEMBL1201862, “PubChem BioAssay data set” (2004).
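Method: 48-hour compound exposure of cells in 96-well plates, five concentrations, linear interpolation of endpoints. GI50: concentration for 50% inhibition of growth.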 Calls of active or inactive are those of the source. No stated cut-off is given here; in the data, active = GI50 up to about 1.1 µM and inactive = higher.

Tests used:
Experiment in all cases: NCI anticancer screen, dose series, 48 h
[1] = tested on: HL-60
[2] = tested on: NCI-H522
[3] = tested on: UACC-62
[4] = tested on: HT-29
[5] = tested on: NCI-H226
[6] = tested on: K562
[7] = tested on: OVCAR-8
[8] = tested on: NCI-H23
[9] = tested on: A498
[10] = tested on: HCT-15
[11] = tested on: NCI-H460
[12] = tested on: 786-0
[13] = tested on: A549
[14] = tested on: SF-295
[15] = tested on: SK-MEL-28
[16] = tested on: Malme-3M
[17] = tested on: OVCAR-3

SMILES	GI50 [1]	GI50 [2]	GI50 [3]	GI50 [4]	GI50 [5]	GI50 [6]	GI50 [7]	GI50 [8]	GI50 [9]	GI50 [10] [µM]	GI50 [11]	GI50 [12]	GI50 [13]	GI50 [14]	GI50 [15]	GI50 [16]	GI50 [17]
CCOC(=O)C(=C=Cc1cccs1)C(=O)c1ccccc1	24.6 µM (inactive)	15.1 µM (inactive)	15.5 µM (inactive)	19.4 µM (inactive)	15 µM (inactive)	37.4 µM (inactive)	15.8 µM (inactive)	15.4 µM (inactive)	19.9 µM (inactive)	16.6	20.4 µM (inactive)	16 µM (inactive)	18.9 µM (inactive)	17.8 µM (inactive)	14.8 µM (inactive)	15.7 µM (inactive)	
COc1ccc(Nc2nc3c(N)cc(C(F)(F)F)cc3nc2-c2ccccc2)cc1	16.9 µM (inactive)	44.3 µM (inactive)	> 100 µM (inactive)		68.9 µM (inactive)	> 100 µM (inactive)	> 100 µM (inactive)	69.7 µM (inactive)	> 100 µM (inactive)	> 100	60.4 µM (inactive)	35.6 µM (inactive)	> 100 µM (inactive)	71.3 µM (inactive)	> 100 µM (inactive)	78.3 µM (inactive)	33.6 µM (inactive)
N#CC(C#N)=C1SCC(=O)CS1	> 100 µM (inactive)	> 100 µM (inactive)	> 100 µM (inactive)	> 100 µM (inactive)	> 100 µM (inactive)	> 100 µM (inactive)	> 100 µM (inactive)	> 100 µM (inactive)	> 100 µM (inactive)	> 100	> 100 µM (inactive)	> 100 µM (inactive)	> 100 µM (inactive)	> 100 µM (inactive)		> 100 µM (inactive)	> 100 µM (inactive)
C=Cc1c(-c2ccccc2)cnc2[nH]c3ccccc3c12	> 50 µM (inactive)	> 50 µM (inactive)	> 50 µM (inactive)	> 50 µM (inactive)		> 50 µM (inactive)	> 50 µM (inactive)	> 50 µM (inactive)	> 50 µM (inactive)	> 50	> 50 µM (inactive)	> 50 µM (inactive)	> 50 µM (inactive)	> 50 µM (inactive)	> 50 µM (inactive)	> 50 µM (inactive)	> 50 µM (inactive)
O=NN(CC1(O)OCC(O)C(O)C1O)C(Cc1c[nH]c2ccccc12)C(=O)O (stereo unspecified)	> 100 µM (inactive)	> 100 µM (inactive)	> 100 µM (inactive)	> 100 µM (inactive)		> 100 µM (inactive)	> 100 µM (inactive)	> 100 µM (inactive)	> 100 µM (inactive)		> 100 µM (inactive)	> 100 µM (inactive)	> 100 µM (inactive)		> 100 µM (inactive)	> 100 µM (inactive)	> 100 µM (inactive)
O=C1CSC(/C(=C/c2ccccc2)c2nc3ccccc3[nH]2)=N1	71.9 µM (inactive)	41.9 µM (inactive)	49.8 µM (inactive)	73.6 µM (inactive)	7.55 µM (inactive)	> 100 µM (inactive)	47.2 µM (inactive)	28.1 µM (inactive)	> 100 µM (inactive)	> 100	> 100 µM (inactive)	65.2 µM (inactive)	72.6 µM (inactive)	63.8 µM (inactive)	> 100 µM (inactive)	60.5 µM (inactive)	> 10 µM (inactive)
CCCC(O)c1cn(-c2cccc(S(=O)(=O)O)c2)nn1 (stereo unspecified)	> 100 µM (inactive)	> 100 µM (inactive)	> 100 µM (inactive)	> 100 µM (inactive)	> 100 µM (inactive)	> 100 µM (inactive)	> 100 µM (inactive)	> 100 µM (inactive)	> 100 µM (inactive)	> 100	> 100 µM (inactive)	> 100 µM (inactive)	> 100 µM (inactive)	> 100 µM (inactive)	> 100 µM (inactive)	> 100 µM (inactive)	> 100 µM (inactive)
CCc1cccc(CC)c1NC(=O)C1=C(C)NC(C)=C(C(=O)Nc2c(CC)cccc2CC)C1c1ccc2c(c1)OCO2	8 µM (inactive)	13.8 µM (inactive)	12.6 µM (inactive)	15.9 µM (inactive)	15 µM (inactive)	15.6 µM (inactive)	18.5 µM (inactive)	17.6 µM (inactive)	21.7 µM (inactive)	12.4	14 µM (inactive)	16.4 µM (inactive)	25.9 µM (inactive)	13.9 µM (inactive)	20 µM (inactive)	14.9 µM (inactive)	13.9 µM (inactive)
C=C1C2=C(CCCC2)C(=O)OC12CCCCC2	27.1 µM (inactive)	35.5 µM (inactive)	56.9 µM (inactive)	59.4 µM (inactive)	93.8 µM (inactive)	45.2 µM (inactive)	> 100 µM (inactive)	36.9 µM (inactive)		60.1	91.4 µM (inactive)	> 100 µM (inactive)	49.3 µM (inactive)	57.7 µM (inactive)	79.4 µM (inactive)	51.3 µM (inactive)	43.5 µM (inactive)
CC(C)(C)NNC(=O)/C(=C/c1ccc([N+](=O)[O-])cc1)NC(=O)c1ccccc1	44.8 µM (inactive)	24.2 µM (inactive)	> 100 µM (inactive)	> 100 µM (inactive)	24.2 µM (inactive)	> 100 µM (inactive)	> 100 µM (inactive)	> 100 µM (inactive)	> 100 µM (inactive)	> 100	60.1 µM (inactive)	48.5 µM (inactive)	> 100 µM (inactive)	> 100 µM (inactive)	> 100 µM (inactive)	> 100 µM (inactive)	> 100 µM (inactive)
O=C(OCCO)C1CC2CC1C1(C2)OCCO1 (stereo unspecified)	> 100 µM (inactive)	> 100 µM (inactive)	> 100 µM (inactive)	> 100 µM (inactive)	> 100 µM (inactive)	> 100 µM (inactive)	> 100 µM (inactive)	> 100 µM (inactive)	> 100 µM (inactive)		> 100 µM (inactive)	> 100 µM (inactive)	> 100 µM (inactive)	> 100 µM (inactive)	> 100 µM (inactive)	> 100 µM (inactive)	> 100 µM (inactive)
N#CCC(=O)N1CCCCCCC1	28.2 µM (inactive)		> 100 µM (inactive)	29.6 µM (inactive)		> 100 µM (inactive)		> 100 µM (inactive)	> 100 µM (inactive)	16.8	42.7 µM (inactive)	> 100 µM (inactive)	> 100 µM (inactive)	> 100 µM (inactive)	> 100 µM (inactive)	> 100 µM (inactive)	
O=C(COC(=O)c1cccc2c(=O)c3ccccc3[nH]c12)Nc1ccc(Cl)cc1	11.6 µM (inactive)	23.9 µM (inactive)	54.1 µM (inactive)	67.9 µM (inactive)	72.8 µM (inactive)	> 100 µM (inactive)	> 100 µM (inactive)	18.8 µM (inactive)	7.96 µM (inactive)		63.4 µM (inactive)	23.1 µM (inactive)	> 100 µM (inactive)	25.5 µM (inactive)	> 100 µM (inactive)	> 100 µM (inactive)	> 100 µM (inactive)
O=C(NC12CC3CC(CC(F)(C3)C1)C2)c1ccccc1	> 100 µM (inactive)	> 100 µM (inactive)	> 100 µM (inactive)	> 100 µM (inactive)		> 100 µM (inactive)	> 100 µM (inactive)	> 100 µM (inactive)	> 100 µM (inactive)		> 100 µM (inactive)	> 100 µM (inactive)	> 100 µM (inactive)		> 100 µM (inactive)	> 100 µM (inactive)	> 100 µM (inactive)
CCN(CC)Cc1cc(Nc2c3ccccc3nc3c2[nH]c2ccccc23)ccc1O	2.16 µM (inactive)	1.13 µM (inactive)	1.62 µM (inactive)	0.52 µM (active)	1.85 µM (inactive)	1.87 µM (inactive)	1.08 µM (active)	1.43 µM (inactive)	1.61 µM (inactive)	0.853	0.75 µM (active)	1.13 µM (inactive)	0.352 µM (active)	1.37 µM (inactive)	1.8 µM (inactive)	1.9 µM (inactive)	
COC1(C)C(=O)N2C1N(C(=O)OC(C)(C)C)CC2(C)C (stereo unspecified)	> 100 µM (inactive)	> 100 µM (inactive)	> 100 µM (inactive)	> 100 µM (inactive)	> 100 µM (inactive)	> 100 µM (inactive)	> 100 µM (inactive)	> 100 µM (inactive)	> 100 µM (inactive)	63.2	81.3 µM (inactive)	> 100 µM (inactive)	> 100 µM (inactive)	> 100 µM (inactive)	> 100 µM (inactive)	> 100 µM (inactive)	> 100 µM (inactive)
COc1ccc(C(=O)C/C(=N/NC(N)=S)C(=O)Nc2ccccc2)cc1	> 100 µM (inactive)		> 100 µM (inactive)	> 100 µM (inactive)	> 100 µM (inactive)	> 100 µM (inactive)	> 100 µM (inactive)	> 100 µM (inactive)	> 100 µM (inactive)	> 100	> 100 µM (inactive)	> 100 µM (inactive)	> 100 µM (inactive)	> 100 µM (inactive)	> 100 µM (inactive)	> 100 µM (inactive)	> 100 µM (inactive)
COC(=O)C1=C(C)C(=O)[C@H]2C(C(=O)OC)CCCC[C@@H]12 (stereo partly specified)	30.2 µM (inactive)	29.4 µM (inactive)	> 100 µM (inactive)	> 100 µM (inactive)	> 100 µM (inactive)	55.8 µM (inactive)	> 100 µM (inactive)	> 100 µM (inactive)	> 100 µM (inactive)	> 100	> 100 µM (inactive)	> 100 µM (inactive)	> 100 µM (inactive)	> 100 µM (inactive)	> 100 µM (inactive)	> 100 µM (inactive)	
